Experimental data: ChEMBL document CHEMBL3124783, “Study of the structural and dynamic effects in the FimH adhesin upon α-d-heptyl mannose binding” (J Med Chem, 2014)
Activity calls are given as the source filed them. The calls are words filed in the database; no cut-off is given here.

Tests used:
[1] = biological target: Type 1 fimbrin D-mannose specific adhesin (Escherichia coli K-12, UniProt P08191); experiment: Binding affinity to Escherichia coli J96 wild type FimH lectin domain expressed in Escherichia coli C43 (DE3) by direct ITC analysis
[2] = biological target: Type 1 fimbrin D-mannose specific adhesin (Escherichia coli K-12) (UniProt P08191); experiment: Binding affinity to Escherichia coli J96 FimH lectin domain expressed in Escherichia coli C43 (DE3) by NMR analysis
[3] = biological target: Type 1 fimbrin D-mannose specific adhesin (Escherichia coli K-12) (UniProt P08191); experiment: Binding affinity to Escherichia coli J96 FimH lectin domain expressed in Escherichia coli C43 (DE3) by SAXS analysis
[4] = Binding affinity to Escherichia coli J96 FimH lectin domain Y48A mutant expressed in Escherichia coli C43 (DE3) by direct ITC analysis
[5] = Binding affinity to Escherichia coli FimH lectin domain
Escherichia coli J96 = experiment: Selectivity ratio of Kd for Escherichia coli J96 FimH lectin domain Y48A mutant to Kd for Escherichia coli J96 wild type FimH lectin domain

Sequence of Type 1 fimbrin D-mannose specific adhesin (Escherichia coli K-12) (P08191 whole entry, the tested form may be a part): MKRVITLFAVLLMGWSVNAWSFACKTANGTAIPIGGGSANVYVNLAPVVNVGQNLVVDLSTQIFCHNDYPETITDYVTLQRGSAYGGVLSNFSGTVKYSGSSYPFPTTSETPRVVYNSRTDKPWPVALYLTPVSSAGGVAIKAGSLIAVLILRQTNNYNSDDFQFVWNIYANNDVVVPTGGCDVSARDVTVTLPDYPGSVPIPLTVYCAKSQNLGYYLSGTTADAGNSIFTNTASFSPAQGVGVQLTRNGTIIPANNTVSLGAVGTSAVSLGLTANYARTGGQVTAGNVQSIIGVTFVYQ
Sequence of Type 1 fimbrin D-mannose specific adhesin (P08191 whole entry, the tested form may be a part): as above

CCCCCCCO[C@H]1O[C@H](CO)[C@@H](O)[C@H](O)[C@@H]1O
Kd [1]: 0.0171 µM
Activity [2]: Active
Activity [3]: Active
Kd [4]: 0.0943 µM
Kd [5]: 0.007 µM
Selectivity ratio (Escherichia coli J96): 5
